Measured values published in patent publication US10005767B2, “Compositions and methods for inhibition of the JAK pathway” (Rigel Pharmaceuticals, Inc., priority 2009, dated 2018).
Structures can show the parent of a compound that is named as a salt.

system: human primary T-cells, IL-2 stimulated proliferation (JAK-1 and JAK-3 dependent; reported as JAK3 activity); test: Human primary T-cell proliferation stimulated by IL-2 (Example 3); assay type: cell-based; conditions: Homo sapiens, T-cell, tested under conditions described in Example 3 (IL-2 stimulated human primary T-cell proliferation); read-out: ability to inhibit JAK3 activity, IC50 range (Table V)
Outline: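 Peripheral-blood human T-cells pre-activated via TCR/CD28, IL-2-starved overnight, then cultured 72 h at 37 °C with compound in Yssel's medium containing IL-2 (80 U/mL in cell suspension). Proliferation read as viable-cell ATP by CellTiter-Glo luminescence; reduction versus control taken as JAK pathway inhibition.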

Molecule	IC50 [nM]
Cc1cnc(Nc2ccc3c(c2)OC(F)(F)O3)nc1Nc1ccc2oc(=O)[nH]c2c1 [IV-36, N2-(2,2-difluoro-2H-1,3-benzodioxol-5-yl)-5-methyl-N4-(2-oxo-2,3-dihydro-1,3-benzoxazol-5-yl)-2,4-pyrimidinediamine]	< 500
Cc1cnc(Nc2cnc3c(c2)c(C)nn3C)nc1Nc1ccc2oc(=O)[nH]c2c1 [IV-40, N2-(1,3-dimethyl-1H-pyrazolo[3,4-b]pyridin-5-yl)-5-methyl-N4-(2-oxo-2,3-dihydro-1,3-benzoxazol-5-yl)-2,4-pyrimidinediamine]	< 500
Cc1cnc(Nc2ccc3cnn(C)c3c2)nc1Nc1ccc2oc(=O)[nH]c2c1 [IV-41, 5-methyl-N2-(1-methylindazol-6-yl)-N4-(2-oxo-2,3-dihydro-1,3-benzoxazol-5-yl)-2,4-pyrimidinediamine]	< 500
Cc1cnc(Nc2ccc3c(cnn3C)c2)nc1Nc1ccc2oc(=O)[nH]c2c1 [IV-42, 5-methyl-N2-(1-methylindazol-5-yl)-N4-(2-oxo-2,3-dihydro-1,3-benzoxazol-5-yl)-2,4-pyrimidinediamine]	< 500
Cc1cnc(Nc2cnc3onc(C)c3c2)nc1Nc1ccc2oc(=O)[nH]c2c1 [IV-43, 5-methyl-N2-(3-methylisoxazolo[5,4-b]pyridin-5-yl)-N4-(2-oxo-2,3-dihydro-1,3-benzoxazol-5-yl)-2,4-pyrimidinediamine]	< 500
COCCN1C(=O)COc2cc(Nc3ncc(C)c(Nc4ccc5oc(=O)[nH]c5c4)n3)ccc21 [IV-44, N2-[4-(2-methoxyethyl)-2H-1,4-benzoxazin-3 (4H)-one-7-yl]-5-methyl-N4-(2-oxo-2,3-dihydro-1,3-benzoxazol-5-yl)-2,4-pyrimidinediamine]	< 500
COCCN1C(=O)C(C)(C)Oc2cc(Nc3ncc(C)c(Nc4ccc5oc(=O)[nH]c5c4)n3)cnc21 [IV-45, N2-[2,2-dimethyl-4-(2-methoxyethyl)-2H-pyrido[3,2-b][1,4]oxazin-3(4H)-one-7-yl]-5-methyl-N4-(2-oxo-2,3-dihydro-1,3-benzoxazol-5-yl)-2,4-pyrimidinediamine]	< 500
Cc1cnc(Nc2cnc3c(c2)OCC(=O)N3)nc1Nc1ccc2oc(=O)[nH]c2c1 [IV-46, 5-methyl-N4-(2-oxo-2,3-dihydro-1,3-benzoxazol-5-yl)-N2-(2H-pyrido[3,2-b][1,4]oxazin-3 (4H)-one-7-yl)-2,4-pyrimidinediamine]	< 500
Cc1cnc(Nc2ccc3c(C)n[nH]c3c2)nc1Nc1ccc2oc(=O)[nH]c2c1 [IV-48, 5-methyl-N2-(3-methylindazol-6-yl)-N4-(2-oxo-2,3-dihydro-1,3-benzoxazol-5-yl)-2,4-pyrimidinediamine]	< 500
Cc1cnc(Nc2ccc3[nH]nc(C)c3c2)nc1Nc1ccc2oc(=O)[nH]c2c1 [IV-49, 5-methyl-N2-(3-methylindazol-5-yl)-N4-(2-oxo-2,3-dihydro-1,3-benzoxazol-5-yl)-2,4-pyrimidinediamine]	< 500
Cc1cnc(Nc2ccc3c(c2)OC(C)(C)C(=O)N3)nc1Nc1ccc2oc(=O)[nH]c2c1 [IV-50, N2-[2,2-dimethyl-2H-1,4-benzoxazin-3(4H)-one-7-yl]-5-methyl-N4-(2-oxo-2,3-dihydro-1,3-benzoxazol-5-yl)-2,4-pyrimidinediamine]	< 500
Cc1cccc(Nc2ncc(C)c(Nc3ccc4oc(=O)[nH]c4c3)n2)n1 [IV-51, 5-(5-methyl-2-(6-methylpyridin-2-ylamino)pyrimidin-4-ylamino)benzo[d]oxazol-2(3H)-one]	500 to 5000
Cc1ccc(Nc2ncc(C)c(Nc3ccc4oc(=O)[nH]c4c3)n2)nc1 [IV-52, 5-(5-methyl-2-(5-methylpyridin-2-ylamino)pyrimidin-4-ylamino)benzo[d]oxazol-2(3H)-one]	500 to 5000
Cc1cnc(Nc2ccc3cnccc3c2)nc1Nc1ccc2oc(=O)[nH]c2c1 [IV-53, 5-[2-(Isoquinolin-6-ylamino)-5-methyl-pyrimidin-4-ylamino]-3H-benzooxazol-2-one]	5000 to 10000
Cc1cnc(Nc2ccc3ccccc3c2)nc1Nc1ccc2oc(=O)[nH]c2c1 [IV-54, 5-[5-Methyl-2-(naphthalen-2-ylamino)-pyrimidin-4-ylamino]-3H-benzooxazol-2-one]	< 500
COc1cc(Nc2ncc(C)c(Nc3ccc4oc(=O)[nH]c4c3)n2)cc2ccccc12 [IV-55, 5-[2-(4-Methoxy-naphthalen-2-ylamino)-5-methyl-pyrimidin-4-ylamino]-3H-benzooxazol-2-one]	< 500
Cc1cnc(Nc2cc(O)c3ccccc3c2)nc1Nc1ccc2oc(=O)[nH]c2c1 [IV-56, 5-[2-(4-Hydroxy-naphthalen-2-ylamino)-5-methyl-pyrimidin-4-ylamino]-3H-benzooxazol-2-one]	5000 to 10000
Cc1cnc(Nc2ccc3ccncc3c2)nc1Nc1ccc2oc(=O)[nH]c2c1 [IV-57, 5-[2-(Isoquinolin-7-ylamino)-5-methyl-pyrimidin-4-ylamino]-3H-benzooxazol-2-one]	> 10000
COc1ccnc(Nc2ncc(C)c(Nc3ccc4oc(=O)[nH]c4c3)n2)c1 [IV-58, N2-(4-methoxypyridin-2-yl)-5-methyl-N4-(2-oxo-2,3-dihydro-1,3-benzoxazol-5-yl)-2,4-pyrimidinediamine]	> 10000
Cc1cnc(Nc2c(F)cc(F)cc2F)nc1Nc1ccc2oc(=O)[nH]c2c1 [IV-59, 5-[5-Methyl-2-(2,4,6-trifluoro-phenylamino)-pyrimidin-4-ylamino]-3H-benzooxazol-2-one]	> 10000
Cc1cnc(Nc2c(C)cccc2C)nc1Nc1ccc2oc(=O)[nH]c2c1 [IV-60, 5-(2-(2,6-dimethylphenylamino)-5-methylpyrimidin-4-ylamino)benzo[d]oxazol-2(3H)-one]	5000 to 10000
Cc1cc(C)c(Nc2ncc(C)c(Nc3ccc4oc(=O)[nH]c4c3)n2)c(C)c1 [IV-61, 5-[5-Methyl-2-(2,4,6-trimethyl-phenylamino)-pyrimidin-4-ylamino]-3H-benzooxazol-2-one]	> 10000
Cc1cnc(Nc2c(C)cccc2F)nc1Nc1ccc2oc(=O)[nH]c2c1 [IV-62, 5-(2-(2-fluoro-6-methylphenylamino)-5-methylpyrimidin-4-ylamino)benzo[d]oxazol-2(3H)-one]	500 to 5000

same assay, conditions: tested under conditions described in Example 3 (IL-2 stimulated human primary T-cell proliferation); read-out: ability to inhibit JAK3 activity, IC50 range (Table V)

Molecule	IC50 [nM]
Cc1cnc(Nc2ccc3c(c2)OCCO3)nc1Nc1ccc2oc(=O)[nH]c2c1 [IV-37, N2-(3,4-ethylenedioxy)phenyl-5-methyl-N4-(2-oxo-2,3-dihydro-1,3-benzoxazol-5-yl)-2,4-pyrimidinediamine]	< 500
Cc1cnc(Nc2ccc3c(c2)OC2(CCCCC2)O3)nc1Nc1ccc2oc(=O)[nH]c2c1 [IV-39, N2-[spiro(2,1′-cyclohexan)-1,3-benzodioxol-5-yl]-5-methyl-N4-(2-oxo-2,3-dihydro-1,3-benzoxazol-5-yl)-2,4-pyrimidinediamine]	< 500
Cc1cnc(Nc2ccc3c(n2)NC(=O)CO3)nc1Nc1ccc2oc(=O)[nH]c2c1 [IV-47, 5-methyl-N4-(2-oxo-2,3-dihydro-1,3-benzoxazol-5-yl)-N2-(2H-pyrido[3,2-b][1,4]oxazin-3 (4H)-one-6-yl)-2,4-pyrimidinediamine]	> 10000
Cc1cnc(Nc2ccncc2F)nc1Nc1ccc2oc(=O)[nH]c2c1 [IV-63, N2-(3-fluoropyridin-4-yl)-5-methyl-N4-(2-oxo-2,3-dihydro-1,3-benzoxazol-5-yl)-2,4-pyrimidinediamine]	5000 to 10000
N4-(benzo[d]oxazol-2(3H)-on-5-yl)-N2-(2-(bicyclo[2.2.1]heptan-2-ylmethyl)isoindolin-5-yl)-5-methylpyrimidine-2,4-diamine [III-11]	< 500

same assay, conditions: tested under conditions described in Example 3 (IL-2 stimulated human primary T-cell proliferation); trifluoroacetic acid salt; read-out: ability to inhibit JAK3 activity, IC50 range (Table V)

Molecule	IC50 [nM]
Cc1cnc(Nc2ccncc2F)nc1Nc1ccc2oc(=O)[nH]c2c1 [IV-64, N2-(3-fluoropyridin-4-yl)-5-methyl-N4-(2-oxo-2,3-dihydro-1,3-benzoxazol-5-yl)-2,4-pyrimidinediamine trifluoroacetic acid salt]	500 to 5000
